Assays:
DS-red signal = DS-red signal in soybean T1 plants from seed imbibed with chlorsulfuron; type: in vivo; settings: T1 seed imbibed with 1 ppm, two weeks
Description: (§1) The first, a control construct, pPHP46916 (10,904 bp) (SEQ ID NO: 2111) contains the following cassettes: cassette A comprising a Glycine max s-adenosylmethionine promoter operably linked to the Glycine max acetolactate synthase gene with HrA mutations operably linked to a Glycine max acetolactate synthase terminator (this cassette serves as a selectable marker during plant transformation; position 81-4062); followed by cassette B comprising the T7 promoter operably linked to hygromycin phosphotransferase operably linked to a T7 terminator (which serves as a selectable marker in E. coli, positions 5448-6586); followed by cassette C comprising a cauliflower mosaic virus 35S promoter with three copies of the TET operator embedded operably linked to DS-RED Express that has the potato LS1 intron; operably linked to the cauliflower mosaic virus 35S terminator (position 6862-8455), followed by cassette D comprising the Glycine max elongation factor 1a2 promoter operably linked to the repressor protein ESR (L10-B7) operably linked to the nos terminator (position 8474-10893). The second, experimental construct, pPHP46864 (11,868 bp) (SEQ ID NO:2112) is exactly the same except embedded within the potato LS1 intron at the Mfe1 site is a 964 bp cassette containing the Glycine max microRNA precursor 159 containing a microRNA that targets the repressor protein. […]

DS-RED expression = assay: DS-RED induction in soybean T0 leaf discs floated on ethametsulfuron; type: in vivo; settings: soybean T0 leaf discs of experimental plants (pPHP46864, amiRNA) vs control pPHP46916; 0.05 ppm or 0.5 ppm, 3-4 days
Description: as §1

DsRED gene expression = assay: DsRED induction in transgenic tobacco leaf disks and T1 seedlings with Ethametsulfuron; type: in vivo, Nicotiana tabacum; settings: T1 seeds germinated on 1 ppm Ethametsulfuron, monitored thru four leaf stage
Description: A summary of the constructs shown in FIG. 4 is provided below in table 29. All vectors contain a right border (RB) proximal 35S::3xtetO-DsRED-UBQ3 inducible reporter cassette, a 35S::1xtetO-EsR(L13-32)-UBQ14 repressor cassette, and a SAMS-HRA-ALS left border (LB) proximal selectable marker. Inserted either upstream (pHD1194-1196) or downstream ([…]) of the repressor cassette are MMV::3xOp-siRNA^rep-Pin2 cassettes composed of an inverted repeat of the full length repressor coding region (no ATG-pHD1194 and 1197) or limited to the 5′ (pHD1195 & 1198) or 3′ (pHD1196 & 1199) halves of the SU repressor coding region linked by an intron spacer region. The MMV::tetO promoter was chosen so as not to cause silencing of the 35S::tetO promoter controlling target transgene expression. In this particular example the spacer region is the potato ST-LS1 gene intron IV2 (Construction of an intron-containing marker gene: splicing of the intron in transgenic plants and its use in monitoring early events in Agrobacterium-mediated plant transformation. Vancanneyt et al. (1990) Mol Gen Genet. 220(2):245-50). […] Nine fully derepressed DsRED positive seedings for each event were then transplanted into soil and their fluorescence phenotype monitored thru the four leaf developmental stage. […]

Row | Compound | DS-red signal (DS-red signal; control soybean plants (pPHP46916)) | DS-red signal (DS-red signal; experimental soybean plants (pPHP46864, amiRNA)) | pattern of DS-RED expression in inducible leaf discs (DS-RED expression) | DsRED expression signal (DsRED gene expression; pHD1180 control tobacco events (no siRNA cassette)) | DsRED intensity level (DsRED gene expression; tobacco lines containing the MMV::tetO-siRNArep cassette (pHD1194-1199))
1 | COc1nc(C)nc(NC(=O)NS(=O)(=O)c2ccccc2Cl)n1 [chlorsulfuron] | no DS-red signal found in root, stem or cotyledon | weak DS-red signal | – | – | –
2 | CCOc1nc(NC)nc(NC(=O)NS(=O)(=O)c2ccccc2C(=O)OC)n1 [Ethametsulfuron, Ethametsulfuron-methyl] | – | – | smoother, more even pattern of expression | modest and diminishes | high and remains so with time

From patent publication US20160152995A1, “METHODS AND COMPOSITIONS TO IMPROVE THE SPREAD OF CHEMICAL SIGNALS IN PLANTS” (PIONEER HI-BRED INTERNATIONAL, INC., priority 2013, published 2016)
